Source: the NIST ThermoML archive (doi:10.1021/je049595u)

Key:
[1] = Molar enthalpy of transition or fusion; conditions: Crystal
[2] = molar heat capacity at saturation pressure

Cc1cccc2cccnc12 [8-methylquinoline]
Conditions | Molar enthalpy of transition or fusion [kcal/mol] | Triple point temperature [K]
Crystal | – | 246.94
[1] | 2.565 | –

molar heat capacity [J/K/mol], [2], Vacuum adiabatic calorimetry
Conditions | Crystal | Liquid
5 K | 0.45 | –
6.105 K | 0.81 | –
7.027 K | 1.26 | –
8.004 K | 1.86 | –
9.004 K | 2.64 | –
10 K | 3.53 | –
10.06 K | 3.58 | –
11.21 K | 4.73 | –
12.47 K | 6.05 | –
13.87 K | 7.66 | –
15.42 K | 9.47 | –
17.14 K | 11.51 | –
19.04 K | 13.71 | –
20 K | 14.8 | –
21.13 K | 16.07 | –
23.44 K | 18.64 | –
25.98 K | 21.32 | –
28.81 K | 24.19 | –
30 K | 25.37 | –
31.94 K | 27.23 | –
35.44 K | 30.44 | –
39.36 K | 33.85 | –
40 K | 34.39 | –
43.73 K | 37.46 | –
48.59 K | 41.21 | –
50 K | 42.28 | –
52.43 K | 44.08 | –
53.97 K | 45.21 | –
57.17 K | 47.47 | –
59.94 K | 49.35 | –
60 K | 49.4 | –
62.72 K | 51.23 | –
69 K | 55.27 | –
70 K | 55.87 | –
75.99 K | 59.46 | –
80 K | 61.81 | –
83.66 K | 63.9 | –
86.44 K | 65.46 | –
90 K | 67.47 | –
91.89 K | 68.5 | –
94.09 K | 69.68 | –
100 K | 72.87 | –
100.75 K | 73.28 | –
103.06 K | 74.5 | –
112.71 K | 79.57 | –
120 K | 83.32 | –
123.65 K | 85.25 | –
135.63 K | 91.49 | –
140 K | 93.7 | –
147.53 K | 97.64 | –
160 K | 104.11 | –
160.44 K | 104.42 | –
170 K | – | 184.91
174.36 K | 111.83 | –
175.64 K | 112.44 | –
175.79 K | – | 185.73
180 K | 114.69 | 186.36
181.22 K | – | 186.55
186.72 K | – | 187.58
186.91 K | 118.52 | –
188.79 K | 119.55 | –
199.75 K | 125.65 | –
200 K | 125.52 | 190.48
203.2 K | 127.63 | –
212.46 K | 132.96 | –
215.19 K | 134.54 | –
220 K | 136.62 | 195.81
224.46 K | 140.5 | –
225.29 K | 140.97 | –
232.54 K | – | 199.61
235.37 K | 150.91 | –
238.7 K | – | 201.71
240 K | 147.98 | 202.12
245.88 K | – | 204
246.94 K | 151.99 | 204.38
253.58 K | – | 206.7
253.72 K | – | 206.81
254.07 K | – | 206.89
256.36 K | – | 207.75
257.67 K | – | 208.16
260 K | – | 208.99
265.24 K | – | 210.84
269.69 K | – | 212.52
280 K | – | 216.4
282.82 K | – | 217.48
296.93 K | – | 222.97
298.15 K | – | 223.45
300 K | – | 224.18
310.97 K | – | 228.56
312.23 K | – | 229.08
320 K | – | 232.22
326.77 K | – | 234.98
340 K | – | 240.4
341.89 K | – | 241.17
357.58 K | – | 247.68
360 K | – | 248.69
373.8 K | – | 254.38
380 K | – | 256.96
389.63 K | – | 260.93
400 K | – | 265.18
405.69 K | – | 267.5
420 K | – | 273.33
422.45 K | – | 274.32
437.11 K | – | 280.26
440 K | – | 281.4

Conditions | mass density [kg/m3] | molar heat capacity [J/K/mol] | vapor or sublimation pressure [kPa]
315.61 K, Liquid, Inclined piston gauge | – | – | 0.0242
324.98 K, Liquid, Inclined piston gauge | – | – | 0.0466
334.99 K, Liquid, Inclined piston gauge | – | – | 0.0905
344.98 K, Liquid, Inclined piston gauge | – | – | 0.1674
354.98 K, Liquid, Inclined piston gauge | – | – | 0.2975
364.98 K, Liquid, Inclined piston gauge | – | – | 0.5091
374.98 K, Liquid, Inclined piston gauge | – | – | 0.8418
384.98 K, Liquid, Inclined piston gauge | – | – | 1.35
393.84 K, Liquid, Twin ebulliometer | – | – | 2.001
394.97 K, Liquid, Inclined piston gauge | – | – | 2.102
400.6 K, Liquid, Twin ebulliometer | – | – | 2.665
404.97 K, Liquid, Inclined piston gauge | – | – | 3.19
410.7 K, Liquid, Twin ebulliometer | – | – | 4.004
418.2 K, Liquid, Twin ebulliometer | – | – | 5.336
429.38 K, Liquid, Twin ebulliometer | – | – | 8.002
437.77 K, Liquid, Twin ebulliometer | – | – | 10.67
444.5 K, Liquid, Twin ebulliometer | – | – | 13.31
451.61 K, Liquid, Twin ebulliometer | – | – | 16.67
457.46 K, Liquid, Twin ebulliometer | – | – | 19.93
465.16 K, Liquid, Twin ebulliometer | – | – | 25.02
465.17 K, Liquid, Twin ebulliometer | – | – | 25.02
472.94 K, Liquid, Twin ebulliometer | – | – | 31.18
480.74 K, Liquid, Twin ebulliometer | – | – | 38.57
488.6 K, Liquid, Twin ebulliometer | – | – | 47.36
496.51 K, Liquid, Twin ebulliometer | – | – | 57.8
504.49 K, Liquid, Twin ebulliometer | – | – | 70.12
512.5 K, Liquid, Twin ebulliometer | – | – | 84.53
520.56 K, Liquid, Twin ebulliometer | – | – | 101.31
528.68 K, Liquid, Twin ebulliometer | – | – | 120.8
536.85 K, Liquid, Twin ebulliometer | – | – | 143.23
545.06 K, Liquid, Twin ebulliometer | – | – | 169
553.32 K, Liquid, Twin ebulliometer | – | – | 198.45
553.33 K, Liquid, Twin ebulliometer | – | – | 198.45
561.65 K, Liquid, Twin ebulliometer | – | – | 232
570.01 K, Liquid, Twin ebulliometer | – | – | 270
769.9 K, Gas, Measured as part of TC determination by DSC | 160.5 | – | –
775.8 K, Liquid, Measured as part of TC determination by DSC | 444.6 | – | –
784 K, Gas, Measured as part of TC determination by DSC | 244.7 | – | –
785.1 K, Liquid, Measured as part of TC determination by DSC | 349.8 | – | –
786 K, Gas, Measured as part of TC determination by DSC | 318.7 | – | –
[2], 460 K, Liquid | – | 289.36 | –
[2], 480 K, Liquid | – | 297.35 | –
[2], 500 K, Liquid | – | 305.31 | –
[2], 520 K, Liquid | – | 313.17 | –
[2], 540 K, Liquid | – | 320.92 | –
[2], 560 K, Liquid | – | 328.51 | –
[2], 580 K, Liquid | – | 335.9 | –
[2], 600 K, Liquid | – | 343.02 | –
[2], 620 K, Liquid | – | 349.87 | –
[2], 640 K, Liquid | – | 356.47 | –
[2], 660 K, Liquid | – | 362.89 | –
[2], 680 K, Liquid | – | 369.38 | –
[2], 700 K, Liquid | – | 376.44 | –

Conditions | Critical temperature, Liquid [K] | mass density, 323.14 K [kg/m3] | mass density, 348.13 K [kg/m3] | mass density, 373.12 K [kg/m3] | mass density, 398.12 K [kg/m3] | mass density, 423.11 K [kg/m3] | mass density, 448.11 K [kg/m3] | mass density, 473.11 K [kg/m3] | mass density, 498.11 K [kg/m3]
DTA | 787 | – | – | – | – | – | – | – | –
Liquid | – | 1049.3 | 1029 | 1009.5 | 988.5 | 967.8 | 947.5 | 926.6 | 904
